As usually defined, the inhibition is the drop in the measured response relative to a control, in per cent.

The target of assay [1] is T1, OsSNAT2 (rice recombinant SNAT2) (Oryza sativa, UniProt Q6Z1Y6).
T1 construct: N-terminal 34 residues deleted; purified recombinant
T1 sequence (Q6Z1Y6 35-200): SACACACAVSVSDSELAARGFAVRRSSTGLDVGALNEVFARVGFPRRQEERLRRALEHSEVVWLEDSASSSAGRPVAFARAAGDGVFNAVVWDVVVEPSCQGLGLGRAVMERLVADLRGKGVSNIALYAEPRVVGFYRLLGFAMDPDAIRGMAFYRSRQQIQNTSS
In words: HPLC-fluorescence of N-acetylserotonin formed. In kind it is biochemical.

Assay [2] has as its target T2, OsSNAT1 (rice recombinant SNAT1) (Oryza sativa, UniProt Q5KQI6).
T2 construct: N-terminal 83 residues deleted; E. coli, plasmid pET300-Δ83SNAT1; purified recombinant
As to the kind of experiment: HPLC-fluorescence of N-acetylserotonin formed. Type of assay: biochemical.

T2 sequence (Q5KQI6 84-254): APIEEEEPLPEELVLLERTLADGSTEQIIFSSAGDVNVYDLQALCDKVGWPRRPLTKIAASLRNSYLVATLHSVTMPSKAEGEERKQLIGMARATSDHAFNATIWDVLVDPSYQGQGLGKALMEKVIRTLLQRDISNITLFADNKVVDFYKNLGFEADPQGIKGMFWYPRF

Turning to `CCCCCCCc1ccc(CCc2cccc(O)c2C(=O)O)cc1` [MG149], in assay [1], the inhibition at 100 µM amounted to 28%. In assay [2], the inhibition at 50 µM came to 80%.
